In patent publication US10342839B2, “Essential oil compositions and applications utilizing essential oils” (Ralco Nutrition, Inc., priority 2015, dated 2019):

How the values were obtained:
[1] = ORAC against peroxyl radicals; settings: trolox equivalents
Excerpt: (§1) Table 4 illustrates the ORAC scores for oregano essential oil (Origanum vulgare), thyme essential oil (Thymus vulgaris), cinnamaldehyde, and ActiFibe (50 wt. % larch arabinogalactan, 50 wt. % water) against 5 of the most common detrimental ROS: peroxyl radicals (RO2), hydroxyl radicals (OH^−1), peroxynitrate (ONO2^−1; H2O2+NO2^−1), superoxide anion (O2^−1), and singlet oxygen (O2). Results are expressed as trolox equivalents (TE/100 g) for each composition: […]

[2] = ORAC against hydroxyl radicals; settings: trolox equivalents
Excerpt: as §1

[3] = ORAC against peroxynitrite; settings: trolox equivalents
Excerpt: as §1

[4] = ORAC against superoxide anion; settings: trolox equivalents
Excerpt: as §1

[5] = ORAC against singlet oxygen; settings: trolox equivalents
Excerpt: as §1

[6] = Total ORAC over the five ROS; settings: sum over the five oxygen species
Excerpt: as §1

[7] = 3-oil screening trial, 35 days, broilers with cocci stress; type: in vivo, Cobb 500 cockerels; settings: 0.75 pounds per ton of feed
Excerpt: 640 1-day-old Cobb 500 cockerels were wing banded, weighed and randomly assigned to pens on the day of delivery. Each pen was 3 feet wide by 2 feet long by 2 feet tall holding 10 birds each; density was 0.6 sq. ft. per bird. The pens were contained within two battery cages in a single barn, each with battery cage having 4 levels and 8 pens per level for a total of 32 pens per battery. The experimental period was 35 days divided into three (3) feeding stages, starter, grower and finisher. Bird weight, average daily gain (ADG), average daily feed intake (ADFI), feed to gain (FG) and Coccidiosis oocyte counts were determined at each period. This study was performed with a large number of treatments in order to screen a number of possible treatments for further future investigations. […]

O=CC=Cc1ccccc1 [Cinnamaldehyde, cinnamaldehyde]
Oxygen Radical Absorbance Capacity, Peroxyl radical [1]: 18,800 TE/100 g | Oxygen Radical Absorbance Capacity, Hydroxyl radical [2]: 49,300 TE/100 g | Oxygen Radical Absorbance Capacity, Peroxynitrite [3]: 3,500 TE/100 g | Oxygen Radical Absorbance Capacity, Superoxide anion [4]: 978,900 TE/100 g | Oxygen Radical Absorbance Capacity, Singlet oxygen [5]: 90,800 TE/100 g | Total ORAC [6]: 1,141,300 TE/100 g | Average bird weights at 35 days [7]: 2180.2 grams
